In paper PMC8253220, “Molecular design, synthesis and in vitro biological evaluation of thienopyrimidine–hydroxamic acids as chimeric kinase HDAC inhibitors: a challenging approach to combat cancer” (Journal of Enzyme Inhibition and Medicinal Chemistry, 2021):
Several values for one entry are separate records, joined by “and”; a condition that tells them apart may be missing. Identical values can stand only once.

Key:
Experiment in all cases: NCI one-dose screen
Assay type in all cases: cell-based, human
[1] = test system: LOX IMVI; conditions: Melanoma LOX IMVI, 10 µM single dose
Summary of the method: (§1)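 At 10 μM, a single concentration, compounds were evaluated for antiproliferative effect in the NCI 60-line screen, with growth expressed relative to untreated control cells.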

[2] = test system: HCT-15; conditions: Colon HCT-15, 10 µM single dose
Summary of the method: as §1

[3] = test system: SW-620; conditions: Colon SW-620, 10 µM single dose
Summary of the method: as §1

[4] = test system: SK-MEL-28; conditions: Melanoma SK-MEL-28, 10 µM single dose
Summary of the method: as §1

[5] = test system: TK-10; conditions: Renal TK-10, 10 µM single dose
Summary of the method: as §1

[6] = test system: NCI-H23; conditions: NSCLC NCI-H23, 10 µM single dose
Summary of the method: (§2)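 In vitro antiproliferative testing: NCI-60 panel, initial single dose 10 μM, inhibition % derived from percent growth of treated versus untreated control cells.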

[7] = test system: HOP-62; conditions: NSCLC HOP-62, 10 µM single dose
Summary of the method: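 Compounds were tested at a single dose of 10 μM across the full NCI-60 cell line panel. Growth was expressed as percent growth relative to untreated control cells, reported as percent inhibition.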

[8] = test system: SNB-75; conditions: CNS SNB-75, 10 µM single dose
Summary of the method: (§3)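 Percent growth inhibition, referenced to untreated control cells, was determined after a single 10 μM compound exposure in the NCI 60-cell-line anticancer screen.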

[9] = test system: ACHN; conditions: Renal ACHN, 10 µM single dose
Summary of the method: as §1

[10] = test system: BT-549; conditions: Breast BT-549, 10 µM single dose
Summary of the method: as §1

[11] = test system: MCF7; conditions: Breast MCF7, 10 µM single dose
Summary of the method: as §2

[12] = test system: RXF 393; conditions: Renal RXF 393, 10 µM single dose
Summary of the method: as §1

[13] = test system: NCI-H522; conditions: NSCLC NCI-H522, 10 µM single dose
Summary of the method: as §3

[14] = test system: SK-MEL-5; conditions: Melanoma SK-MEL-5, 10 µM single dose
Summary of the method: as §1

[15] = test system: IGROV1; conditions: Ovarian IGROV1, 10 µM single dose
Summary of the method: as §1

[16] = test system: OVCAR-8; conditions: Ovarian OVCAR-8, 10 µM single dose
Summary of the method: as §1

[17] = test system: NCI-H226; conditions: NSCLC NCI-H226, 10 µM single dose
Summary of the method: as §3

[18] = test system: SF-268; conditions: CNS SF-268, 10 µM single dose
Summary of the method: as §2

[19] = test system: CCRF-CEM; conditions: Leukemia CCRF-CEM, 10 µM single dose
Summary of the method: as §1

[20] = test system: OVCAR-3; conditions: Ovarian OVCAR-3, 10 µM single dose
Summary of the method: as §1

[21] = test system: K-562; conditions: Leukemia K-562, 10 µM single dose
Summary of the method: as §1

[22] = test system: SN12C; conditions: Renal SN12C, 10 µM single dose
Summary of the method: as §1

[23] = test system: EKVX; conditions: NSCLC EKVX, 10 µM single dose
Summary of the method: as §3

[24] = test system: COLO 205; conditions: Colon COLO 205, 10 µM single dose
Summary of the method: as §1

[25] = test system: PC-3; conditions: Prostate PC-3, 10 µM single dose
Summary of the method: as §1

[26] = test system: 786-0; conditions: Renal 786-0, 10 µM single dose
Summary of the method: as §1

[27] = test system: HOP-92; conditions: NSCLC HOP-92, 10 µM single dose
Summary of the method: as §1

[28] = test system: DU-145; conditions: Prostate DU-145, 10 µM single dose
Summary of the method: as §1

[29] = test system: OVCAR-4; conditions: Ovarian OVCAR-4, 10 µM single dose
Summary of the method: as §1

[30] = test system: MDA-MB-231/ATCC; conditions: Breast MDA-MB-231/ATCC, 10 µM single dose
Summary of the method: as §1

[31] = test system: MALME-3M; conditions: Melanoma MALME-3M, 10 µM single dose
Summary of the method: as §1

[32] = test system: HCC-2998; conditions: Colon HCC-2998, 10 µM single dose
Summary of the method: as §1

[33] = test system: U251; conditions: CNS U251, 10 µM single dose
Summary of the method: as §3

[34] = test system: OVCAR-5; conditions: Ovarian OVCAR-5, 10 µM single dose
Summary of the method: as §1

[35] = test system: MDA-MB-468; conditions: Breast MDA-MB-468, 10 µM single dose
Summary of the method: as §2

SMILES	Growth Percent [1]	Growth Percent [2]	Growth Percent [3]	Growth Percent [4]	Growth Percent [5]	Growth Percent [6]	Growth Percent [7]	Growth Percent [8]	Growth Percent [9]	Growth Percent [10]	Growth Percent [11]	Growth Percent [12]	Growth Percent [13]	Growth Percent [14]	Growth Percent [15]	Growth Percent [16]	Growth Percent [17]	Growth Percent [18]	Growth Percent [19]	Growth Percent [20]	further results
Cc1c(C(=O)NO)sc2ncnc(Nc3cccc4[nH]cnc34)c12 [Compound 15a, 4-(1H-benzo[d]imidazol-4-ylamino)-N-hydroxy-5-methylthieno[2,3-d]pyrimidine-6-carboxamide]	97.5% and 97.58%	102.15%	103.6% and 103.66%	107.8% and 107.83%	113.8% and 113.84%	92.2% and 92.27%	104.2%	81.0% and 81.08%	99.1% and 99.11%	113.5% and 113.56%	95.2% and 95.25%	101.2% and 101.28%	94.4% and 94.42%	101.5% and 101.54%	97.9% and 97.91%	103.6% and 103.64%	99.3% and 99.31%	93.9%	110.7% and 110.72%	106.1% and 106.13%	Growth Percent [21]: 101.00%; Growth Percent [22]: 102.0% and 102.01%; Growth Percent [23]: 98.4% and 98.44%; Growth Percent [24]: 112.8% and 112.81%; Growth Percent [25]: 104.3% and 104.34%; Growth Percent [26]: 102.1% and 102.13%; Growth Percent [27]: 118.2% and 118.26%; Growth Percent [28]: 109.5% and 109.53%; Growth Percent [29]: 111.9% and 111.94%; Growth Percent [30]: 102.4% and 102.49%; Growth Percent [31]: 109.7% and 109.71%; Growth Percent [32]: 100.9% and 100.92%; Growth Percent [33]: 96.7% and 96.72%; Growth Percent [34]: 107.0% and 107.01%; Growth Percent [35]: 101.3% and 101.31%
Cc1c(C(=O)NO)sc2ncnc(Nc3ccc(NC(=O)Nc4ccccc4)cc3)c12 [Compound 7a, 1–(4-(6-(hydroxycarbamoyl)-5-methylthieno[2,3-d]pyrimidin-4-ylamino)phenyl)-3-phenylurea]	90.5% and 90.57%	99.1% and 99.16%	98.4% and 98.44%	104.3% and 104.39%	108.5% and 108.59%	101.19%	102.6% and 102.62%	75.5% and 75.56%	102.3% and 102.35%	87.6%	90.7% and 90.78%	110.2%	92.0% and 92.04%	101.0% and 101.07%	103.6% and 103.69%	106.3% and 106.33%	99.4% and 99.47%	91.7%	97.4% and 97.44%	105.4% and 105.48%	Growth Percent [21]: 105.9% and 105.92%; Growth Percent [22]: 102.8% and 102.86%; Growth Percent [23]: 88.9% and 88.95%; Growth Percent [24]: 106.8% and 106.84%; Growth Percent [25]: 97.3% and 97.34%; Growth Percent [26]: 95.9% and 95.93%; Growth Percent [27]: 117.3% and 117.36%; Growth Percent [28]: 100.2% and 100.26%; Growth Percent [29]: 94.1% and 94.11%; Growth Percent [30]: 91.1% and 91.12%; Growth Percent [31]: 89.5% and 89.51%; Growth Percent [32]: 99.3% and 99.38%; Growth Percent [33]: 89.3% and 89.34%; Growth Percent [34]: 105.3% and 105.35%; Growth Percent [35]: 111.9% and 111.92%
Cc1c(C(=O)NCCCC(=O)NO)sc2ncnc(Nc3ccc(NC(=O)Nc4ccccc4)cc3)c12 [Compound 12a, 1–(4-(6-((4-(hydroxyamino)-4-oxobutyl)carbamoyl)-5-methylthieno[2,3-d]pyrimidin-4-ylamino)phenyl)-3-phenylurea]	93.57%	100.2%	103.3% and 103.39%	109.4% and 109.43%	111.3% and 111.37%	89.2% and 89.25%	100.0% and 100.08%	78.1% and 78.17%	95.4% and 95.45%	105.0% and 105.06%	92.4% and 92.41%	100.1% and 100.13%	87.7% and 87.71%	97.8% and 97.81%	99.0% and 99.07%	104.6% and 104.68%	93.3% and 93.35%	92.5% and 92.51%	107.0% and 107.09%	107.1% and 107.19%	Growth Percent [21]: 97.8% and 97.83%; Growth Percent [22]: 99.0% and 99.09%; Growth Percent [23]: 93.22%; Growth Percent [24]: 111.9% and 111.95%; Growth Percent [25]: 98.9% and 98.99%; Growth Percent [26]: 102.3% and 102.37%; Growth Percent [27]: 121.7% and 121.76%; Growth Percent [28]: 108.5% and 108.51%; Growth Percent [29]: 100.6%; Growth Percent [30]: 92.1% and 92.16%; Growth Percent [31]: 104.5% and 104.57%; Growth Percent [32]: 102.1% and 102.15%; Growth Percent [33]: 92.3% and 92.32%; Growth Percent [34]: 105.1% and 105.14%; Growth Percent [35]: 100.0% and 100.06%
